Reference: EP0834302A1, “Compositions comprising glutathione liposomes” (Boehringer Ingelheim Limited, priority 1996, dated 1998)

Assays:
[1] = Depth of glutathione penetration into the skin: tape stripping with DPPH anti-free radical assay
Protocol: The depth of glutathione penetration into the skin was determined by comparing two different galenic forms: free glutathione in solution (FG) and glutathione encapsulated in a liposome (LG). Since glutathione is a highly reactive free radical scavenger, its presence even in small quantities can be detected by spectroscopic methods.
Gluthione preparations are applied to the skin, and tape strippings are taken after some fixed interval of time. The tape strippings are assayed for anti-free radical activity by DPPH (1,1 Diphenyl-2-picrylhydrazyl) at 8.76 x 10^-3 % (w/v) in methanol) colouration/ discolouration tests (Kim et al. Proc. 17th IFSCC Congress (Yokohama), Vol. 1: 3-14, 1994). […]
On the arms of each volunteer, the 3 test sites were determined in a random way: one site for application of water (negative control), one for application of free glutathione (FG) and one for application of liposome encapsulated glutathione (LG). […]
5 tape strippings were carried out on the control sites after 2µl/cm^2 application of distilled water and a light massage. […] The change in colour was measured on a spectrophotometer at 517nm.
Each test solution was then applied to the designated sites (2µl/cm^2) by slight massaging and left to dry for 30 minutes. […] Colour changes were recorded as described above.

[2] = tested on: UVB induced skin erythema; settings: applied topically in a simple oil-in-water emulsion or as a gel preparation; Int. J. Cos. Sci. 17:91-103, 1995; cited from earlier work

| Structure (SMILES) | Tape strips containing residual scavenger activity, Mean value ([1]; in vivo) | depth of penetration ([1]; result in words, presence of DPPH reactive substances on successive strips) | inhibiting UVB induced skin erythema [2] |
| --- | --- | --- | --- |
| N[C@@H](CCC(=O)N[C@@H](CS)C(=O)NCC(=O)O)C(=O)O [FG, Reduced glutathione] | 1.3 | absence of significant penetration | – |
| N[C@@H](CCC(=O)N[C@@H](CS)C(=O)NCC(=O)O)C(=O)O [Glutathione] | – | – | ineffective |
